Columns and labels:
[1] = molecular target: T1, mammalian γ-opiod receptor (Homo sapiens, UniProt P35372); test: ligand-induced changes in [Ca2+]i in control cells expressing γ-opiod/Gα15; type: cell-based; settings: HEK-293 control cells; dependent on Gα15; rapid onset
T1 construct: expressed in transfected cells; host or cells: HEK-293 line expressing SV40 T-antigen; CMV-γ-opiod and TK-Gα15 constructs
From the text: (§1) To determine the ligand selectivity of GPCR-B4, expression in heterologous cells was used. One issue for GPCR expression in heterologous cells is determining how to couple the GPCR to a G-protein and an appropriate signaling pathway. In this example, the G-protein subunit Gα15 was used, which promiscuously couples a wide range of GPCRs to the phospholipase C-mediated signaling pathway (Offermans & Simon, J. Biol. Chem. 270:15175-15180 (1995)). Consequently, receptor activity can be effectively measured by recording ligand-induced changes in [Ca^2+]i using fluorescent Ca^2+-indicator dyes and fluorometric imaging.
(§2) To insure expression of GPCR-B4 in the plasma membrane, a variety of cell lines and expression vectors were tested. […] An HEK-293 line expressing SV40 T-antigen was co-transfected with a TK-Gα15, CMV-γ-opiod and a pEAK-10 episomal vector (Edge Biosystems) containing a EF1a-[B4-GPCR]construct. Transfection efficiencies were determined using CMV-GFP constructs.

GPCR-B4 = molecular target: T2, GPCR-B4 (Rattus norvegicus, UniProt Q9Z0R7); test: ligand-induced changes in [Ca2+]i in HEK-293 cells expressing B4/Gα15 (fluorescent Ca2+-indicator dyes, fluorometric imaging); type: cell-based; settings: HEK-293 line expressing SV40 T-antigen; B4 receptor dependent
T2 construct: expressed in transfected cells; host or cells: HEK-293 line expressing SV40 T-antigen; pEAK-10 episomal vector (Edge Biosystems) with EF1a-[B4-GPCR] construct; TK-Gα15
T2 sequence (Q9Z0R7 20-843): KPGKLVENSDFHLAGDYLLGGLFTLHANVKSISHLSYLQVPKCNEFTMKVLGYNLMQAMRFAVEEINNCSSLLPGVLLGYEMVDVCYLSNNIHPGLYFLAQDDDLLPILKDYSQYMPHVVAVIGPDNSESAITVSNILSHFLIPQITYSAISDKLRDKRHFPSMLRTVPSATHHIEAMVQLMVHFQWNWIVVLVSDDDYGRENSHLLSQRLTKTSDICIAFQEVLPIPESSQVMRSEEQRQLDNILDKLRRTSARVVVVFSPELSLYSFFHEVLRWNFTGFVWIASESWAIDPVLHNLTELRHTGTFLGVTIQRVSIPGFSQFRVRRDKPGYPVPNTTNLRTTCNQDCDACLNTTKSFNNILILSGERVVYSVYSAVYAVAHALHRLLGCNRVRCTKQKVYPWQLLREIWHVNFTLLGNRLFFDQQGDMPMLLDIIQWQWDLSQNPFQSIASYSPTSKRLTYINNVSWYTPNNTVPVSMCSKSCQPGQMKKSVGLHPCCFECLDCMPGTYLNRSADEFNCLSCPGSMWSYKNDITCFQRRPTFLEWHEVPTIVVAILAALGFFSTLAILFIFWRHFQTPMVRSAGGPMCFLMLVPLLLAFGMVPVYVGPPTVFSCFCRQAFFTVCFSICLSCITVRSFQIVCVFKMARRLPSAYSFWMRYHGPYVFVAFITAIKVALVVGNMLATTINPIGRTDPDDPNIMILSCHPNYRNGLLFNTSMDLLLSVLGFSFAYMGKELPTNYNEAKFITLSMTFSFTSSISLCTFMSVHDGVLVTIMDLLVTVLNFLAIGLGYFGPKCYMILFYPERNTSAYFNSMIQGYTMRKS
From the text: as §1, §2

T1 sequence (P35372 whole entry): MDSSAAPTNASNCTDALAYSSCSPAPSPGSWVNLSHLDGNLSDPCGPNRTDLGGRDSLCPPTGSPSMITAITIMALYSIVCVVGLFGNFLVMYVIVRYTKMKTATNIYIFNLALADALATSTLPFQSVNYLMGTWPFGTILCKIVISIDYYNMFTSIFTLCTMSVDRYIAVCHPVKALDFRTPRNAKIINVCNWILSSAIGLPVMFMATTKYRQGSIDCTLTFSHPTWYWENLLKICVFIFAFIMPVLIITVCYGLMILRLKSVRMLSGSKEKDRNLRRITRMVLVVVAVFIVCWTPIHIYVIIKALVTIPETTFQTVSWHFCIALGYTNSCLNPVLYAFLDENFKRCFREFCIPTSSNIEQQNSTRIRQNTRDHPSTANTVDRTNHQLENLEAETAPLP

SMILES | response (change in [Ca2+]i) of control cells expressing γ-opiod/Gα15 [1] | response (change in [Ca2+]i) of cells expressing B4/Gα15 or B4/Gα15/γ-opiod (GPCR-B4)
C[C@@H](NC(=O)[C@@H](N)Cc1ccc(O)cc1)C(=O)NCC(=O)N(C)[C@@H](Cc1ccccc1)C(=O)NCCO [DAMGO] | respond robustly | 
NC(=S)Nc1ccccc1 [PTC, phenylthiocarbamide] |  | respond

Reference: patent US10031129B2, “G-protein coupled receptor polypeptides involved in sensory transduction” (The Regents of the University of California, priority 1998, dated 2018)
